Assay results: patent US20250222050A1, “Chlorella and Corn Leaf Extract Compositions, Their Production, and Methods of Use” (Unigen, Inc., priority 2024, published 2025)

Columns and labels:
Assay type in all cases: in vivo
BALB/C mice [1] = experiment: Sleep latency induced by barbital sodium
Method: Purpose bred BALB/C mice (n=405; male, 20 g-22 g) were purchased from Beijing Hua Fukang biological technologies Inc (Beijing, China). The study was carried out at Testing Center for the functions of Health Foods, College of Arts and science of Beijing Union University (Beijing, China). Mice were kept in specific pathogen free, temperature-controlled room and fed with rodent diet purchased from Beijing Hua Fukang biological technologies Inc (Beijing, China). Three consecutive studies were carried out. Mice were randomly assigned into 9 groups for each experiment. Fifteen mice were allocated in each group. […] The third experiment was set to detect sleep latency induced by barbital sodium (Lot #: 527B051, Merck).
Mice were intraperitoneally injected with 240 mg/kg barbital sodium (0.2 mL/20 g body weight), 15 min after the last test material administration. Sleep latency was recorded and the difference in sleep time between the tested substance groups and vehicle control were determined. […]

BALB/C mice [2] = experiment: 60-minute direct effect (direct sleep) test, no pentobarbital
Method: Purpose bred BALB/C mice (n=405; male, 20 g-22 g) were purchased from Beijing Hua Fukang biological technologies Inc (Beijing, China). The study was carried out at Testing Center for the functions of Health Foods, College of Arts and science of Beijing Union University (Beijing, China). Mice were kept in specific pathogen free, temperature-controlled room and fed with rodent diet purchased from Beijing Hua Fukang biological technologies Inc (Beijing, China). Three consecutive studies were carried out. Mice were randomly assigned into 9 groups for each experiment. Fifteen mice were allocated in each group. The first experiment was set to determine the sleep incidence effect of test materials. The second experiment was designed to detect the total sleep time under the hypnotic subthreshold dose of pentobarbital sodium (Lot #: 34E10320, Beijing Dingguo Changsheng Biotechnology Co. Ltd). The third experiment was set to detect sleep latency induced by barbital sodium (Lot #: 527B051, Merck).
Zea mays (corn) leaf extract standardized at not less than 0.2% 6-MBOA (Lot #: FP210105-01) and Chlorella Powder (Lot #: 222A) were suspended with sterile water. Melatonin purchased from By-Health Co. Ltd. (Beijing, China) was used as a reference compound in each study. All mice were orally administrated with test materials in a volume of 20 mL/kg BW/day. Study lasted for 31 days. […]

BALB/C mice [3] = experiment: Sleep time (duration) after pentobarbital sodium; conditions: oral 1 mg/kg, 46 mg/kg pentobarbital sodium i.p. 15 min after last dose
Method: Purpose bred BALB/C mice (n=405; male, 20 g-22 g) were purchased from Beijing Hua Fukang biological technologies Inc (Beijing, China). […] Mice were kept in specific pathogen free, temperature-controlled room and fed with rodent diet purchased from Beijing Hua Fukang biological technologies Inc (Beijing, China). Three consecutive studies were carried out. Mice were randomly assigned into 9 groups for each experiment. Fifteen mice were allocated in each group.
The amount of time spent sleeping was determined by injecting mice with 46 mg/kg pentobarbital sodium, intraperitoneally, 15 minutes after administration of the last dose of the test materials. The sleep time of each mouse was recorded and the difference of sleep time between tested materials and vehicle control were analyzed.

BALB/C mice [4] = experiment: Sleep incidence under hypnotic subthreshold dose of pentobarbital; conditions: mice n=15, oral 1 mg/kg; 32 mg/kg pentobarbital i.p. 15 min after last dose
Method: The numbers of mice that lost turnover to the right side over 1 min following injection of pentobarbital were recorded. The incidence of sleeping mice was analyzed to compare the difference between the tested substance groups and vehicle control. All the experiments were conducted at night.

## COc1ccc2[nH]cc(CCNC(C)=O)c2c1 [Melatonin]
BALB/C mice [1]; melatonin 1 mg/kg, chlorella 5,000 mg/kg, combination 250 + 5,000 mg/kg
  sleep latency versus vehicle control (in words): significantly shortened
BALB/C mice [1]; mice, oral 1 mg/kg, 240 mg/kg barbital sodium i.p. 15 min after last dose
  Latent Time (sleep onset latency): 37.8 ± 12.8 min
BALB/C mice [2]; mice n=15, oral 1 mg/kg, 1 h after administration
  Numbers of sleeping: 0
BALB/C mice [2]; mice, oral 1 mg/kg
  Sleep Time: 0 min
BALB/C mice [3]
  Sleep Time (sleep duration): 59.7 ± 13.0 min
BALB/C mice [4]
  Incidence (sleep incidence): 60%
